The values that follow come from patent US20190060249A1 (priority 2017, published 2019).

Each structure is given as a SMILES string.

The target in the test is T1, ALDH3A1 (Homo sapiens, UniProt P30838).
T1 sequence (P30838 1-453): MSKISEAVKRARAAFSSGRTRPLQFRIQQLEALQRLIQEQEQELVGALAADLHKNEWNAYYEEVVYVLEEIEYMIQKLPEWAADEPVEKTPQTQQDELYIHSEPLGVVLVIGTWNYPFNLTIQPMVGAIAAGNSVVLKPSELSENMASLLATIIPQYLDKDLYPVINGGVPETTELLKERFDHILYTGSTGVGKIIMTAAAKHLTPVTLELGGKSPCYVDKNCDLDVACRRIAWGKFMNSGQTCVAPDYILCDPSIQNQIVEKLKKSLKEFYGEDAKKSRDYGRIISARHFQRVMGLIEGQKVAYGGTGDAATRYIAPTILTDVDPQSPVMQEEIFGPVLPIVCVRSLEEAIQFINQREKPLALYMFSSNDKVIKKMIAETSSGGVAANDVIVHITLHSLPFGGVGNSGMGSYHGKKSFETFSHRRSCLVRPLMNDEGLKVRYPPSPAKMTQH
As to the kind of experiment: ALDH enzymatic assay (spectrophotometric), recombinant ALDH3A1. In kind it is biochemical. The conditions noted are these: 10 mM acetaldehyde, propionaldehyde, benzaldehyde, cinnamaldehyde, decanal, heptaldehyde or 200 μM 4-hydroxynonenal; 100 μM compound. From the text: To determine if ALDH3A1 activation is sufficient to protect salivary glands from radiation-induced dysfunction, a library of 135 traditional Chinese medicine extracts donated from Sun Ten Pharmaceutical Co., Taiwan, was screened using a spectroscopic enzyme activity assay and purified recombinant ALDH3A1. […] We then conducted high performance liquid chromatography (HPLC) fractionation of the extracts and nuclear magnetic resonance (NMR) characterization of the fractions. Based on the NMR fingerprint, we identified known constituents of similar fingerprints and purchased the commercially available compounds to test using the enzyme activity assay.
ALDH enzymatic assay: ALDH1A1, ALDH1A2, 2, 3A1, 3A2, 4A1, 5A1, 7A1 were measured as previously described using 5 μg/ml of recombinant protein (Chen, C. H., Cruz, L. A., and Mochly-Rosen, D. (2015) Pharmacological recruitment of aldehyde dehydrogenase 3A1 (ALDH3A1) to assist ALDH2 in acetaldehyde and ethanol metabolism in vivo. Proceedings of the National Academy of Sciences of the United States of America 112, 3074-3079). […] Assays were conducted in 50 mM NaPPi buffer (pH 7.4) in the presence of 2.5 mM NAD^+ and 10 mM substrate and measured in triplicate at 25° C. Dose response curve fits and EC50's were calculated using GraphPad Prism 7 software.
Activity measured in presence of compound concentrations from 6 nM to 400 μM.

As to `C=CCc1ccc2c(c1)OCO2` [Alda-89, safrole, reference compound], the “substrate specificity of increase in ALDH3A1 catalytic activity” value is “only increase the catalytic activity of ALDH3A1 towards small aldehydes like acetaldehyde and propionaldehyde but not aromatic or long-chain aldehydes”.
